ChEMBL document CHEMBL1201862, “PubChem BioAssay data set” (2004)
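Tested at 5 concentrations; 48 h exposure; 96-well plates; endpoints linearly interpolated, else capped at highest concentration. GI50 marks 50% less growth.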 The source made the active and inactive calls. Rule as the data show it: active = GI50 up to about 1.1 µM and inactive = higher.

Assays:
Test in all cases: NCI anticancer screen, dose series, 48 h
PC-3 = tested on: PC-3
NCI/ADR-RES = tested on: NCI/ADR-RES
COLO 205 = tested on: COLO 205
OVCAR-4 = tested on: OVCAR-4
SK-OV-3 = tested on: SK-OV-3
T47D = tested on: T47D
HOP-92 = tested on: HOP-92
SNB-75 = tested on: SNB-75
SW-620 = tested on: SW-620
Malme-3M = tested on: Malme-3M
MOLT-4 = tested on: MOLT-4
RPMI-8226 = tested on: RPMI-8226
OVCAR-5 = tested on: OVCAR-5
KM12 = tested on: KM12
OVCAR-8 = tested on: OVCAR-8
CCRF-CEM = tested on: CCRF-CEM
NCI-H226 = tested on: NCI-H226
CAKI-1 = tested on: CAKI-1
U-251 = tested on: U-251
IGROV-1 = tested on: IGROV-1

Compound: c1ccc(CSc2nc(N3CCCCC3)c3cn[nH]c3n2)cc1
- GI50 (PC-3): 22.5 µM (inactive)
- GI50 (NCI/ADR-RES): 61.2 µM (inactive)
- GI50 (COLO 205): 23 µM (inactive)
- GI50 (OVCAR-4): 36.1 µM (inactive)
- GI50 (SK-OV-3): 36.6 µM (inactive)
- GI50 (T47D): 21.9 µM (inactive)
- GI50 (HOP-92): 21.3 µM (inactive)
- GI50 (SNB-75): 20.7 µM (inactive)
- GI50 (SW-620): 19.9 µM (inactive)
- GI50 (Malme-3M): 20.4 µM (inactive)
- GI50 (MOLT-4): 49.1 µM (inactive)
- GI50 (RPMI-8226): 26.6 µM (inactive)
- GI50 (OVCAR-5): 27.9 µM (inactive)
- GI50 (KM12): 14.7 µM (inactive)
- GI50 (OVCAR-8): 23.4 µM (inactive)
- GI50 (CCRF-CEM): 44 µM (inactive)
- GI50 (NCI-H226): 18.8 µM (inactive)
- GI50 (CAKI-1): 29.6 µM (inactive)
- GI50 (U-251): 19.1 µM (inactive)
- GI50 (IGROV-1): 17.5 µM (inactive)

Compound: CC(=O)NNc1nc(C)c(C(/C=C/c2ccc3c(c2)OCO3)=N/NC(=O)c2ccncc2)s1
- GI50 (PC-3): > 100 µM (inactive)
- GI50 (NCI/ADR-RES): > 100 µM (inactive)
- GI50 (OVCAR-4): > 100 µM (inactive)
- GI50 (SK-OV-3): > 100 µM (inactive)
- GI50 (T47D): > 100 µM (inactive)
- GI50 (HOP-92): > 100 µM (inactive)
- GI50 (SNB-75): > 100 µM (inactive)
- GI50 (SW-620): > 100 µM (inactive)
- GI50 (Malme-3M): > 100 µM (inactive)
- GI50 (MOLT-4): > 100 µM (inactive)
- GI50 (RPMI-8226): > 100 µM (inactive)
- GI50 (OVCAR-5): > 100 µM (inactive)
- GI50 (KM12): > 100 µM (inactive)
- GI50 (OVCAR-8): > 100 µM (inactive)
- GI50 (CCRF-CEM): > 100 µM (inactive)
- GI50 (NCI-H226): > 100 µM (inactive)
- GI50 (CAKI-1): > 100 µM (inactive)
- GI50 (U-251): > 100 µM (inactive)
- GI50 (IGROV-1): > 100 µM (inactive)

Compound: CC(/C=C/C(=O)NO)=C\C(C)C(=O)c1ccc(N(C)C)cc1 (centres undefined)
- GI50 (PC-3): 0.0156 µM (active)
- GI50 (NCI/ADR-RES): < 0.01 µM (active)
- GI50 (COLO 205): 0.0209 µM (active)
- GI50 (OVCAR-4): 0.0409 µM (active)
- GI50 (SK-OV-3): 0.0498 µM (active)
- GI50 (T47D): < 0.01 µM (active)
- GI50 (HOP-92): 0.0652 µM (active)
- GI50 (SNB-75): 0.0244 µM (active)
- GI50 (SW-620): < 0.01 µM (active)
- GI50 (Malme-3M): < 0.01 µM (active)
- GI50 (MOLT-4): < 0.0135 µM (active)
- GI50 (RPMI-8226): < 0.01 µM (active)
- GI50 (OVCAR-5): 0.114 µM (active)
- GI50 (KM12): 0.0256 µM (active)
- GI50 (OVCAR-8): < 0.01 µM (active)
- GI50 (CCRF-CEM): < 0.01 µM (active)
- GI50 (NCI-H226): 0.188 µM (active)
- GI50 (CAKI-1): 0.029 µM (active)
- GI50 (U-251): 0.0142 µM (active)
- GI50 (IGROV-1): 0.0259 µM (active)
